According to ChEMBL document CHEMBL5724914, “Linking interpersonal differences in gut microbiota composition and drug biotransformation activity” (2024):

Conditions: human gut metagenome, 24 h, 2 µM
Also: call rule not given here.

Row | Bacterial Biotransformation | Structure (SMILES)
1 | Compound NOT metabolized | N#Cc1ccc(C(c2ccc(C#N)cc2)n2cncn2)cc1 [LETROZOLE]
2 | Compound NOT metabolized | CCCC1O[C@@H]2C[C@H]3[C@@H]4CCC5=CC(=O)C=C[C@]5(C)[C@H]4[C@@H](O)C[C@]3(C)[C@]2(C(=O)CO)O1 (stereo not given in full) [BUDESONIDE]

Test: (§1) The drug is tested on Z-023 corresponding to metagenome with ENA study accession number: PRJEB37062 and ENA sample accession number: ERS12561822 for biotransformation under anaerobic condition. The drug concentrations were measured over 9 timepoints collected between 0 and 24 hours of incubation by liquid-chromatography-coupled mass spectrometry (LC–MS)
Conditions: 2 µM

Row | Bacterial Biotransformation | Structure (SMILES)
3 | Compound metabolized | N#Cc1ccc(C(c2ccc(C#N)cc2)n2cncn2)cc1 [LETROZOLE]
4 | Compound NOT metabolized | CCCC1O[C@@H]2C[C@H]3[C@@H]4CCC5=CC(=O)C=C[C@]5(C)[C@H]4[C@@H](O)C[C@]3(C)[C@]2(C(=O)CO)O1 (stereo not given in full) [BUDESONIDE]

Test: (§2) The drug is tested on Z-025 corresponding to rabbit gut metagenome with ENA study accession number: PRJEB37062 and ENA sample accession number: ERS12561824 for biotransformation under anaerobic condition. The drug concentrations were measured over 9 timepoints collected between 0 and 24 hours of incubation by liquid-chromatography-coupled mass spectrometry (LC–MS)
Conditions: 2 µM

Row | Bacterial Biotransformation | Structure (SMILES)
5 | Compound NOT metabolized | N#Cc1ccc(C(c2ccc(C#N)cc2)n2cncn2)cc1 [LETROZOLE]
6 | Compound NOT metabolized | CCCC1O[C@@H]2C[C@H]3[C@@H]4CCC5=CC(=O)C=C[C@]5(C)[C@H]4[C@@H](O)C[C@]3(C)[C@]2(C(=O)CO)O1 (stereo not given in full) [BUDESONIDE]

Test: as §2, with “Z-022” for “Z-025”, “mouse” for “rabbit”, “ERS12561821” for “ERS12561824”
Conditions: 2 µM

Row | Bacterial Biotransformation | Structure (SMILES)
7 | Compound metabolized | N#Cc1ccc(C(c2ccc(C#N)cc2)n2cncn2)cc1 [LETROZOLE]
8 | Compound NOT metabolized | CCCC1O[C@@H]2C[C@H]3[C@@H]4CCC5=CC(=O)C=C[C@]5(C)[C@H]4[C@@H](O)C[C@]3(C)[C@]2(C(=O)CO)O1 (stereo not given in full) [BUDESONIDE]

Conditions: human gut metagenome, 24 h, 2 µM
Remark: another data set of the same source

Row | Bacterial Biotransformation | Structure (SMILES)
9 | Compound NOT metabolized | N#Cc1ccc(C(c2ccc(C#N)cc2)n2cncn2)cc1 [LETROZOLE]
10 | Compound metabolized | CCCC1O[C@@H]2C[C@H]3[C@@H]4CCC5=CC(=O)C=C[C@]5(C)[C@H]4[C@@H](O)C[C@]3(C)[C@]2(C(=O)CO)O1 (stereo not given in full) [BUDESONIDE]

Test: as §2, with “WLS-039” for “Z-025”, “human” for “rabbit”, “ERS12561746” for “ERS12561824”
Conditions: 2 µM

Row | Bacterial Biotransformation | Structure (SMILES)
11 | Compound NOT metabolized | N#Cc1ccc(C(c2ccc(C#N)cc2)n2cncn2)cc1 [LETROZOLE]
12 | Compound metabolized | CCCC1O[C@@H]2C[C@H]3[C@@H]4CCC5=CC(=O)C=C[C@]5(C)[C@H]4[C@@H](O)C[C@]3(C)[C@]2(C(=O)CO)O1 (stereo not given in full) [BUDESONIDE]

Test: as §2, with “WLS-010” for “Z-025”, “human” for “rabbit”, “ERS12561743” for “ERS12561824”
Conditions: 2 µM

Row | Bacterial Biotransformation | Structure (SMILES)
13 | Compound NOT metabolized | N#Cc1ccc(C(c2ccc(C#N)cc2)n2cncn2)cc1 [LETROZOLE]
14 | Compound metabolized | CCCC1O[C@@H]2C[C@H]3[C@@H]4CCC5=CC(=O)C=C[C@]5(C)[C@H]4[C@@H](O)C[C@]3(C)[C@]2(C(=O)CO)O1 (stereo not given in full) [BUDESONIDE]

Conditions: human gut metagenome, 24 h, 2 µM
Remark: another data set of the same source

Row | Bacterial Biotransformation | Structure (SMILES)
15 | Compound NOT metabolized | N#Cc1ccc(C(c2ccc(C#N)cc2)n2cncn2)cc1 [LETROZOLE]
16 | Compound metabolized | CCCC1O[C@@H]2C[C@H]3[C@@H]4CCC5=CC(=O)C=C[C@]5(C)[C@H]4[C@@H](O)C[C@]3(C)[C@]2(C(=O)CO)O1 (stereo not given in full) [BUDESONIDE]

Conditions: human gut metagenome, 24 h, 2 µM
Remark: another data set of the same source

Row | Bacterial Biotransformation | Structure (SMILES)
17 | Compound NOT metabolized | N#Cc1ccc(C(c2ccc(C#N)cc2)n2cncn2)cc1 [LETROZOLE]
18 | Compound metabolized | CCCC1O[C@@H]2C[C@H]3[C@@H]4CCC5=CC(=O)C=C[C@]5(C)[C@H]4[C@@H](O)C[C@]3(C)[C@]2(C(=O)CO)O1 (stereo not given in full) [BUDESONIDE]

Conditions: human gut metagenome, 24 h, 2 µM
Remark: another data set of the same source

Row | Bacterial Biotransformation | Structure (SMILES)
19 | Compound NOT metabolized | N#Cc1ccc(C(c2ccc(C#N)cc2)n2cncn2)cc1 [LETROZOLE]
20 | Compound metabolized | CCCC1O[C@@H]2C[C@H]3[C@@H]4CCC5=CC(=O)C=C[C@]5(C)[C@H]4[C@@H](O)C[C@]3(C)[C@]2(C(=O)CO)O1 (stereo not given in full) [BUDESONIDE]

Conditions: human gut metagenome, 24 h, 2 µM
Remark: another data set of the same source

Row | Bacterial Biotransformation | Structure (SMILES)
21 | Compound NOT metabolized | N#Cc1ccc(C(c2ccc(C#N)cc2)n2cncn2)cc1 [LETROZOLE]
22 | Compound metabolized | CCCC1O[C@@H]2C[C@H]3[C@@H]4CCC5=CC(=O)C=C[C@]5(C)[C@H]4[C@@H](O)C[C@]3(C)[C@]2(C(=O)CO)O1 (stereo not given in full) [BUDESONIDE]

Conditions: human gut metagenome, 24 h, 2 µM
Remark: another data set of the same source

Row | Bacterial Biotransformation | Structure (SMILES)
23 | Compound NOT metabolized | N#Cc1ccc(C(c2ccc(C#N)cc2)n2cncn2)cc1 [LETROZOLE]
24 | Compound metabolized | CCCC1O[C@@H]2C[C@H]3[C@@H]4CCC5=CC(=O)C=C[C@]5(C)[C@H]4[C@@H](O)C[C@]3(C)[C@]2(C(=O)CO)O1 (stereo not given in full) [BUDESONIDE]

Test: as §2, with “WLS-098” for “Z-025”, “human” for “rabbit”, “ERS12561754” for “ERS12561824”
Conditions: 2 µM

Row | Bacterial Biotransformation | Structure (SMILES)
25 | Compound NOT metabolized | N#Cc1ccc(C(c2ccc(C#N)cc2)n2cncn2)cc1 [LETROZOLE]
26 | Compound metabolized | CCCC1O[C@@H]2C[C@H]3[C@@H]4CCC5=CC(=O)C=C[C@]5(C)[C@H]4[C@@H](O)C[C@]3(C)[C@]2(C(=O)CO)O1 (stereo not given in full) [BUDESONIDE]

Conditions: human gut metagenome, 24 h, 2 µM
Remark: another data set of the same source

Row | Bacterial Biotransformation | Structure (SMILES)
27 | Compound NOT metabolized | N#Cc1ccc(C(c2ccc(C#N)cc2)n2cncn2)cc1 [LETROZOLE]
28 | Compound metabolized | CCCC1O[C@@H]2C[C@H]3[C@@H]4CCC5=CC(=O)C=C[C@]5(C)[C@H]4[C@@H](O)C[C@]3(C)[C@]2(C(=O)CO)O1 (stereo not given in full) [BUDESONIDE]

Test: as §2, with “WLS-027” for “Z-025”, “human” for “rabbit”, “ERS12561744” for “ERS12561824”
Conditions: 2 µM

Row | Bacterial Biotransformation | Structure (SMILES)
29 | Compound NOT metabolized | N#Cc1ccc(C(c2ccc(C#N)cc2)n2cncn2)cc1 [LETROZOLE]
30 | Compound metabolized | CCCC1O[C@@H]2C[C@H]3[C@@H]4CCC5=CC(=O)C=C[C@]5(C)[C@H]4[C@@H](O)C[C@]3(C)[C@]2(C(=O)CO)O1 (stereo not given in full) [BUDESONIDE]

Test: as §2, with “WLS-052” for “Z-025”, “human” for “rabbit”, “ERS12561747” for “ERS12561824”
Conditions: 2 µM

Row | Bacterial Biotransformation | Structure (SMILES)
31 | Compound NOT metabolized | N#Cc1ccc(C(c2ccc(C#N)cc2)n2cncn2)cc1 [LETROZOLE]
32 | Compound metabolized | CCCC1O[C@@H]2C[C@H]3[C@@H]4CCC5=CC(=O)C=C[C@]5(C)[C@H]4[C@@H](O)C[C@]3(C)[C@]2(C(=O)CO)O1 (stereo not given in full) [BUDESONIDE]

Test: as §2, with “Z-011” for “Z-025”, “mouse” for “rabbit”, “ERS12561811” for “ERS12561824”
Conditions: 2 µM

Row | Bacterial Biotransformation | Structure (SMILES)
33 | Compound NOT metabolized | N#Cc1ccc(C(c2ccc(C#N)cc2)n2cncn2)cc1 [LETROZOLE]
34 | Compound metabolized | CCCC1O[C@@H]2C[C@H]3[C@@H]4CCC5=CC(=O)C=C[C@]5(C)[C@H]4[C@@H](O)C[C@]3(C)[C@]2(C(=O)CO)O1 (stereo not given in full) [BUDESONIDE]

Conditions: human gut metagenome, 24 h, 2 µM
Remark: another data set of the same source

Row | Bacterial Biotransformation | Structure (SMILES)
35 | Compound NOT metabolized | N#Cc1ccc(C(c2ccc(C#N)cc2)n2cncn2)cc1 [LETROZOLE]
36 | Compound metabolized | CCCC1O[C@@H]2C[C@H]3[C@@H]4CCC5=CC(=O)C=C[C@]5(C)[C@H]4[C@@H](O)C[C@]3(C)[C@]2(C(=O)CO)O1 (stereo not given in full) [BUDESONIDE]

Test: as §2, with “Z-006” for “Z-025”, “mouse” for “rabbit”, “ERS12561806” for “ERS12561824”
Conditions: 2 µM

Row | Bacterial Biotransformation | Structure (SMILES)
37 | Compound NOT metabolized | N#Cc1ccc(C(c2ccc(C#N)cc2)n2cncn2)cc1 [LETROZOLE]
38 | Compound NOT metabolized | CCCC1O[C@@H]2C[C@H]3[C@@H]4CCC5=CC(=O)C=C[C@]5(C)[C@H]4[C@@H](O)C[C@]3(C)[C@]2(C(=O)CO)O1 (stereo not given in full) [BUDESONIDE]

Test: as §1, with “Z-021” for “Z-023”, “ERS12561820” for “ERS12561822”
Conditions: 2 µM

Row | Bacterial Biotransformation | Structure (SMILES)
39 | Compound metabolized | N#Cc1ccc(C(c2ccc(C#N)cc2)n2cncn2)cc1 [LETROZOLE]
40 | Compound metabolized | CCCC1O[C@@H]2C[C@H]3[C@@H]4CCC5=CC(=O)C=C[C@]5(C)[C@H]4[C@@H](O)C[C@]3(C)[C@]2(C(=O)CO)O1 (stereo not given in full) [BUDESONIDE]
